From PMC3445516 (PLoS ONE, 2012)
Read-outs that look alike come from different tables or passages of the source. One block for each molecule: values may come before it.

How the values were obtained:
Assay in all cases: Ambit kinase profiling, competition binding
p38-delta = biological target: T1, p38-delta (Homo sapiens, UniProt O15264)
T1 construct: purchased Ambit Biosciences (KINOMEscan)
T1 sequence (O15264 1-365): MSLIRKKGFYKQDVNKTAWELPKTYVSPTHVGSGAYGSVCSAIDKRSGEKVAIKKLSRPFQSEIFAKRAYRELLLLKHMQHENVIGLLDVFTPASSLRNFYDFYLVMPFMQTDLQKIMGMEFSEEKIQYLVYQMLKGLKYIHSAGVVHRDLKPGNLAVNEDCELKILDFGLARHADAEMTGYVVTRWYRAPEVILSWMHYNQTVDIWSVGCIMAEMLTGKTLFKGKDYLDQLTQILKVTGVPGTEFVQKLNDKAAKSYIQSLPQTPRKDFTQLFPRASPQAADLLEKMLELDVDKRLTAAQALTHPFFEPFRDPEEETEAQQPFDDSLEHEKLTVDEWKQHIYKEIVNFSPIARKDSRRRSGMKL
Procedure: (§1) Also included in the kinase profile are four isoforms of PKC (δ, ε, η, θ) and eight isoforms of CAMKs (CAMKIα, δ, γ; CAMKIIα, β, δ, γ; CAMK4).
(§2) The global kinase profiling experiment was performed by Ambit Biosciences.

EPHA1 = biological target: T2, EPHA1 (Homo sapiens, UniProt P21709)
T2 construct: purchased Ambit Biosciences (KINOMEscan)
T2 sequence (P21709 26-976): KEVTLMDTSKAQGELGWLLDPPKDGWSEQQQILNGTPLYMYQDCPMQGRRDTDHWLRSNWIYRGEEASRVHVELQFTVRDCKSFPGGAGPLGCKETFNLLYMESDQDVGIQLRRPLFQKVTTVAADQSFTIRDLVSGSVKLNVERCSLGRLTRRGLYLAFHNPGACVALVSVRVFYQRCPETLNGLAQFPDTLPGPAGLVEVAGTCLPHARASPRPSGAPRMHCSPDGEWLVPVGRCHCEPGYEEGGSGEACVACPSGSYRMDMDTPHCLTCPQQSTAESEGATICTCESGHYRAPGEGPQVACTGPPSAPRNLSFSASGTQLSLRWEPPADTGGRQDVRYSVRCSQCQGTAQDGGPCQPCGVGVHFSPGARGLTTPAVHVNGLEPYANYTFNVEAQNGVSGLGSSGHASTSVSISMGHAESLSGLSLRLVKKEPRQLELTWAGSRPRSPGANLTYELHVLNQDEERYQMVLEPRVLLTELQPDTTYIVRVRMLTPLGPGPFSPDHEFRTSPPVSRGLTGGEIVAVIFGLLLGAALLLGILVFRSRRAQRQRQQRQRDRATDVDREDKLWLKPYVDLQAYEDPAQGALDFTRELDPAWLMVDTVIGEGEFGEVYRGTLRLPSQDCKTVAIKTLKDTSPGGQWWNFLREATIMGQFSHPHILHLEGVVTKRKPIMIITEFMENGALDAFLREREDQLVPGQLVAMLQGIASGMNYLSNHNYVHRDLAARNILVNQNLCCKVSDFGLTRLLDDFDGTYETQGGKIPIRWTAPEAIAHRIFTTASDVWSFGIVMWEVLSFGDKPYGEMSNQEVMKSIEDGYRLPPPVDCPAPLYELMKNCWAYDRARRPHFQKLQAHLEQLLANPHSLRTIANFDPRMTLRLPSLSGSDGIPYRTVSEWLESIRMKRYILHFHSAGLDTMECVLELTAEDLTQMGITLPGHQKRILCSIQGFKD
Procedure: as §1, §2

CDK7 = biological target: T3, CDK7 (Homo sapiens, UniProt P50613)
T3 construct: purchased Ambit Biosciences (KINOMEscan)
T3 sequence (P50613 whole entry): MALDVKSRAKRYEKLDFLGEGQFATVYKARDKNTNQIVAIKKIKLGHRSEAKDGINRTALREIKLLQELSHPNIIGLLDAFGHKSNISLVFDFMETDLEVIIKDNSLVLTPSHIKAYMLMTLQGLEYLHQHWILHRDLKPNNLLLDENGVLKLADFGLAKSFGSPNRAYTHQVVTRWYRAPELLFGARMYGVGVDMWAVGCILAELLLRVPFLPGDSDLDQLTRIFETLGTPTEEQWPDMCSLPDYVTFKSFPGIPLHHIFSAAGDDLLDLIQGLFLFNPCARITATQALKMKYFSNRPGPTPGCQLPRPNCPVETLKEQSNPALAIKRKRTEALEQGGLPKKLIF
Procedure: as §1, §2

PHKG2 = biological target: T4, PHKG2 (Homo sapiens, UniProt P15735)
T4 construct: purchased Ambit Biosciences (KINOMEscan)
T4 sequence (P15735 1-406): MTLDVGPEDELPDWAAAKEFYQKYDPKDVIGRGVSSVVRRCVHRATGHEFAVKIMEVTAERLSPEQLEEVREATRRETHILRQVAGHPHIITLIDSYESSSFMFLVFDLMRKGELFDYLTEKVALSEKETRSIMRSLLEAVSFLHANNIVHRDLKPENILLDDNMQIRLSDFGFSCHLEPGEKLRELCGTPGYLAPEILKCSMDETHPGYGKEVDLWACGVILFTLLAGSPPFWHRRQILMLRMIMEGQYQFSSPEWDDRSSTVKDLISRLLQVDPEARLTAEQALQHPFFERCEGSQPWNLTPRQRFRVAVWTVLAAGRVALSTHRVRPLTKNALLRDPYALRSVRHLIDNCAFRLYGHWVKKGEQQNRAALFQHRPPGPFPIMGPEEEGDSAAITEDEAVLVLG
Procedure: as §1, §2

[1] = biological target: T5, RPS6KA6(Kin.Dom.2-C-terminal) (Homo sapiens, UniProt Q9UK32); conditions: for % Competition: 10 µM
T5 construct: RPS6KA6(Kin.Dom.2-C-terminal); purchased Ambit Biosciences (KINOMEscan)
T5 sequence (Q9UK32 401-745 limits assumed): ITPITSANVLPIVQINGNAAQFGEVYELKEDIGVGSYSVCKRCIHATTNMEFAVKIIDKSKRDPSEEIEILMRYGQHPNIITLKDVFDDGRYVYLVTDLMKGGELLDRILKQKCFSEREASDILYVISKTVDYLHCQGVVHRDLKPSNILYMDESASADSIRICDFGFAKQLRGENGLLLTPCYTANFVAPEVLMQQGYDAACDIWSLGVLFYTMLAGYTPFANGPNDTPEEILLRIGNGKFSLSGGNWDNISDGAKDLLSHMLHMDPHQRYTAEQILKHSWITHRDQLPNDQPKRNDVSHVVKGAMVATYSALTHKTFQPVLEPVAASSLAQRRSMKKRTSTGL
Procedure: as §1, §2

CDK5 = biological target: T6, CDK5 (Homo sapiens, UniProt Q00535)
T6 construct: purchased Ambit Biosciences (KINOMEscan)
T6 sequence (Q00535 whole entry): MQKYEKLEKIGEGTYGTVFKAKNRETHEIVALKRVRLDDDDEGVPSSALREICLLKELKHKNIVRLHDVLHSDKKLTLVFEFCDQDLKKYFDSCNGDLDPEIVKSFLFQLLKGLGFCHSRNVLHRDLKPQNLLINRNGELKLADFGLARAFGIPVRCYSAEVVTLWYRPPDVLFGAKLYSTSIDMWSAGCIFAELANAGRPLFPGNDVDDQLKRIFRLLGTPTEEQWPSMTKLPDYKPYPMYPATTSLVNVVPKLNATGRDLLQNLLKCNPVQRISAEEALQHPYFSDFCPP
Procedure: as §1, §2

BRAF(V600E) = biological target: T7, BRAF(V600E) (Homo sapiens, UniProt P15056, V600E)
T7 construct: purchased Ambit Biosciences (KINOMEscan)
T7 sequence (P15056 whole entry V600E): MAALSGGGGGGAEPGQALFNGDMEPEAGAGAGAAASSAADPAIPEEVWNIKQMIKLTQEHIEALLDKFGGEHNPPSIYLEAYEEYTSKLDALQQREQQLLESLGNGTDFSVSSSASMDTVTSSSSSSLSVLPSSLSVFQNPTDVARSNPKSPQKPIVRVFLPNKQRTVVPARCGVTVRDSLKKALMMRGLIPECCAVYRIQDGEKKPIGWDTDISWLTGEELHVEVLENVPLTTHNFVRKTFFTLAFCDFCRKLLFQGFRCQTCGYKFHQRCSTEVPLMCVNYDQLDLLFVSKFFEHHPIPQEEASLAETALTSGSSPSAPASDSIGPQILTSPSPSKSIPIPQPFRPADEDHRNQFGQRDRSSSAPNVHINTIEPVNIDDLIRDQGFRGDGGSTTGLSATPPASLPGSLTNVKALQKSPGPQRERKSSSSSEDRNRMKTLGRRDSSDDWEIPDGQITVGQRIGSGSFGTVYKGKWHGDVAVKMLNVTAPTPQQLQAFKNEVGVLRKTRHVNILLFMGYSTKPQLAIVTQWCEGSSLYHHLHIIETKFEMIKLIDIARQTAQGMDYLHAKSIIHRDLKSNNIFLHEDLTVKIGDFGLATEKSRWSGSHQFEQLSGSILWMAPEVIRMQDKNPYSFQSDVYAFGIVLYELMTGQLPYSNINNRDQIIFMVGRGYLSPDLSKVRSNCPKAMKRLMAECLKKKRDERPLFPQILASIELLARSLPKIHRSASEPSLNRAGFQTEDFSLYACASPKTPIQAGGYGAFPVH
Procedure: as §1, §2

ACVRL1 = biological target: T8, ACVRL1 (Homo sapiens, UniProt P37023)
T8 construct: purchased Ambit Biosciences (KINOMEscan)
T8 sequence (P37023 22-503): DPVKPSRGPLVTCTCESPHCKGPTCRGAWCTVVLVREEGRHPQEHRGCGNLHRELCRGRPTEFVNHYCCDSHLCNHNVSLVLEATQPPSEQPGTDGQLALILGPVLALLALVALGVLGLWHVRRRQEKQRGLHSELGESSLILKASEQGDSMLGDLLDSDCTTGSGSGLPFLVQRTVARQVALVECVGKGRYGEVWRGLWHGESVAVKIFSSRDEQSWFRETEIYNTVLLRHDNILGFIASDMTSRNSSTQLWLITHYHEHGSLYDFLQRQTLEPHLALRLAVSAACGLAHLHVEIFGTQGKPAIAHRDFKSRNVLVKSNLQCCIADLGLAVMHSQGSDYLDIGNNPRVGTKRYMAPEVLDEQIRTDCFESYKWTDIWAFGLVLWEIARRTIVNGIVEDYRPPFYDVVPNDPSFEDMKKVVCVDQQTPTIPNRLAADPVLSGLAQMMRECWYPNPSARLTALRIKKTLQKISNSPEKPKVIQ
Procedure: as §1, §2

ERK3 = biological target: T9, ERK3 (Homo sapiens, UniProt Q16659)
T9 construct: purchased Ambit Biosciences (KINOMEscan)
T9 sequence (Q16659 whole entry): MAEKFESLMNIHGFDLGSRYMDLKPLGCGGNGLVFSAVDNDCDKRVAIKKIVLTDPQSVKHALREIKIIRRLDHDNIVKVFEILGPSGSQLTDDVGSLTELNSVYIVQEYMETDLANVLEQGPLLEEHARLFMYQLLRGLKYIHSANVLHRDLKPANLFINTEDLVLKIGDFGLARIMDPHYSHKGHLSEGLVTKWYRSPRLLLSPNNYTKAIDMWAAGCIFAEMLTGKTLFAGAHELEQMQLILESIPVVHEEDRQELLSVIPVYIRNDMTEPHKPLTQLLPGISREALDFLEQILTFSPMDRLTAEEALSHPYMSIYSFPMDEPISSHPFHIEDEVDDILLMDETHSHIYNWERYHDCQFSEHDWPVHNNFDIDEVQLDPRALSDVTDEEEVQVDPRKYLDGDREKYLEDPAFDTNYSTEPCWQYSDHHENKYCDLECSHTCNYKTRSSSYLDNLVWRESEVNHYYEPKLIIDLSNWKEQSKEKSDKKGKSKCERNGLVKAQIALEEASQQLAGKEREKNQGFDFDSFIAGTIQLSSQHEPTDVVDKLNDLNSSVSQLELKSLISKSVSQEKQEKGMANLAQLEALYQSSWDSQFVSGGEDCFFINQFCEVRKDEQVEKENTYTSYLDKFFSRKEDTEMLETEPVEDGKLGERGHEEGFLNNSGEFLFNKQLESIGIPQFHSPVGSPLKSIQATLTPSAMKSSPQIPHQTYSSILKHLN
Procedure: as §1, §2

YANK3 = biological target: T10, YANK3 (Homo sapiens, UniProt Q86UX6)
T10 construct: purchased Ambit Biosciences (KINOMEscan)
T10 sequence (Q86UX6 whole entry): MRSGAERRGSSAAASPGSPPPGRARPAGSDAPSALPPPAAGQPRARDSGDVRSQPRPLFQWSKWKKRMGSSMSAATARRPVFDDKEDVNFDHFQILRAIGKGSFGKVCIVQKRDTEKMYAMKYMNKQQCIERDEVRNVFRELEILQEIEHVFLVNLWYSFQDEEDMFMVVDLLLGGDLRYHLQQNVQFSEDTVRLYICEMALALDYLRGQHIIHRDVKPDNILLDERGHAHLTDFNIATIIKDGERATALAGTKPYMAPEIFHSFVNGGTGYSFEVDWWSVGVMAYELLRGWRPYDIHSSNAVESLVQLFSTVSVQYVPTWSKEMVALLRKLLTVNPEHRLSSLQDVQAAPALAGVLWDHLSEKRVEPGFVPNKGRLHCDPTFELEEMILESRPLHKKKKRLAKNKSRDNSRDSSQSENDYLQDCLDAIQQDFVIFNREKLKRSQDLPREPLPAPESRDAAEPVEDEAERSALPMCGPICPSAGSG
Procedure: as §1, §2

ERK4 = biological target: T11, ERK4 (Homo sapiens, UniProt P31152)
T11 construct: purchased Ambit Biosciences (KINOMEscan)
T11 sequence (P31152 whole entry): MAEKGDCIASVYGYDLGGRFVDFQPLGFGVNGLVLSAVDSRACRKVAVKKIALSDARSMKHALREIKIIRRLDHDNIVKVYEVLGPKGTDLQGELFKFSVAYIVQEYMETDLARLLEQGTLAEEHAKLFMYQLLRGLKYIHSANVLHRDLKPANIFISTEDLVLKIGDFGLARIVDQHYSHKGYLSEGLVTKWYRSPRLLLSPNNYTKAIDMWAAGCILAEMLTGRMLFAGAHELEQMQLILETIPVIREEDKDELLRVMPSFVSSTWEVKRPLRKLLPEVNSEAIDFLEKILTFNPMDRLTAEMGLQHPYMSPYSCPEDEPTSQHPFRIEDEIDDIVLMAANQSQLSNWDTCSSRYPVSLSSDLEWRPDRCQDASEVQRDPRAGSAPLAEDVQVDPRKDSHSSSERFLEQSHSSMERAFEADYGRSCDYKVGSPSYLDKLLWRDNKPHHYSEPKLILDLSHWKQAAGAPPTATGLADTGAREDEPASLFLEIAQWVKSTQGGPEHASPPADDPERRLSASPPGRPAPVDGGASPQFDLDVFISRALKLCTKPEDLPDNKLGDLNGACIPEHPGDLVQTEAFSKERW
Procedure: as §1, §2

- inhibition at 10 µM (p38-delta; 10 µM, read-out: % Competition): 82%
- inhibition at 10 µM (EPHA1; EPHA1, 10 µM, read-out: % Competition): 81%
- inhibition at 10 µM (CDK7; CDK7, 10 µM, read-out: % Competition): 100%
- inhibition at 10 µM (PHKG2; PHKG2, 10 µM, read-out: % Competition): 91%
- % Competition [1]: 98%
- inhibition at 10 µM (CDK5; CDK5, 10 µM, read-out: % Competition): 92%
- inhibition at 10 µM (BRAF(V600E); BRAF(V600E), 10 µM, read-out: % Competition): 97%
- inhibition at 10 µM (ACVRL1; ACVRL1, 10 µM, read-out: % Competition): 83%
- inhibition at 10 µM (ERK3; ERK3, 10 µM, read-out: % Competition): 98%
- inhibition at 10 µM (YANK3; YANK3, 10 µM, read-out: % Competition): 67%
- inhibition at 10 µM (ERK4; ERK4, 10 µM, read-out: % Competition): 68%
Compound: Fc1ccc(-c2c(-c3ccncc3)[nH]c3nccnc23)cc1 [Compound 122]

Compound: CC(O)CNc1cc(-c2[nH]c3cccnc3c2-c2ccc(F)cc2)ccn1 (stereo not drawn) [Compound 140]
- % Competition (p38-delta; 10 µM): <50%
- inhibition at 10 µM (EPHA1; read-out: % Competition): < 50%
- inhibition at 10 µM (CDK7; read-out: % Competition): < 50%
- inhibition at 10 µM (PHKG2; read-out: % Competition): < 50%
- % Competition [1]: 96%
- inhibition at 10 µM (CDK5; read-out: % Competition): < 50%
- inhibition at 10 µM (BRAF(V600E); read-out: % Competition): 78%
- inhibition at 10 µM (ACVRL1; read-out: % Competition): < 50%
- inhibition at 10 µM (ERK3; read-out: % Competition): < 50%
- inhibition at 10 µM (YANK3; read-out: % Competition): < 50%
- inhibition at 10 µM (ERK4; read-out: % Competition): < 50%

- inhibition at 10 µM (p38-delta; compound concentration 10 uM, read-out: Percent Competition): 82%
- inhibition at 10 µM (EPHA1; EPHA1, compound concentration 10 uM, read-out: Percent Competition): 81%
- inhibition at 10 µM (CDK7; CDK7, compound concentration 10 uM, read-out: Percent Competition): 100%
- inhibition at 10 µM (PHKG2; PHKG2, compound concentration 10 uM, read-out: Percent Competition): 91%
- Percent Competition ([1]; compound concentration 10 uM): 98%
- inhibition at 10 µM (CDK5; CDK5, compound concentration 10 uM, read-out: Percent Competition): 92%
- inhibition at 10 µM (BRAF(V600E); BRAF(V600E), compound concentration 10 uM, read-out: Percent Competition): 97%
- inhibition at 10 µM (ACVRL1; ACVRL1, compound concentration 10 uM, read-out: Percent Competition): 83%
- inhibition at 10 µM (ERK3; ERK3, compound concentration 10 uM, read-out: Percent Competition): 98%
- inhibition at 10 µM (YANK3; YANK3, compound concentration 10 uM, read-out: Percent Competition): 67%
- inhibition at 10 µM (ERK4; ERK4, compound concentration 10 uM, read-out: Percent Competition): 68%
Compound: Fc1ccc(-c2c(-c3ccncc3)[nH]c3nccnc23)cc1 [RO1155697-000-005]
